From ChEMBL document CHEMBL1128755, “LTD4 Receptor binding activity of novel pyridine chromanols: qualitative correlation with pKa” (Bioorg Med Chem Lett, 1995)

Assays:
[1] = Association constant (pKa) was determined; assay type: physicochemical
[2] = biological target: T1, Cysteinyl leukotriene receptor 1 (Cavia porcellus, UniProt Q2NNR5); assay: Compound was tested for the inhibition of [3H]leukotriene D4 binding to LTD4 receptor in guinea pig lung membranes; assay type: cell membranes, Membrane
T1 sequence (Q2NNR5 whole entry): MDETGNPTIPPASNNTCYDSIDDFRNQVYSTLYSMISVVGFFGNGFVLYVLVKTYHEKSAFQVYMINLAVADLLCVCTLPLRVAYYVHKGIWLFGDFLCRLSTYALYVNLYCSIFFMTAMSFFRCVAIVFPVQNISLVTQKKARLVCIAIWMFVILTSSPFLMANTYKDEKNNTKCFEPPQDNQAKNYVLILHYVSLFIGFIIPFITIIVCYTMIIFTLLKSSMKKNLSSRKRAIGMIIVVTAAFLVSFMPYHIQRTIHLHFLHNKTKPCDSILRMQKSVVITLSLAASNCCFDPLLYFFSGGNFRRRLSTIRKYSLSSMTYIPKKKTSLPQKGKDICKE

[3] = Partition coefficient (logP); assay type: physicochemical; conditions: octanol/water

Row | Structure (SMILES) | pKa [1] | Ki [2] [nM] | logP [3]
1 | O[C@@H]1c2cc(OCc3ccc4ccccc4n3)ccc2OC[C@@H]1Cc1cccnc1 | 4.81 | 1640 | 2.04
2 | O[C@@H]1c2cc(OCc3ccccn3)ccc2OC[C@@H]1Cc1cccnc1 | 5.25 | > 100000 | 0.66
3 | O[C@@H]1c2cc(OCc3cccc(F)n3)ccc2OC[C@@H]1Cc1cccnc1 | -0.44 | > 100000 | 0.84
4 | Cc1nc(COc2ccc3c(c2)[C@@H](O)[C@@H](Cc2cccnc2)CO3)ccc1[N+](=O)[O-] | 1.52 | 240 | 0.99
5 | Cc1cccc(COc2ccc3c(c2)[C@@H](O)[C@@H](Cc2cccnc2)CO3)n1 | 5.96 | > 100000 | 1.11
6 | O[C@@H]1c2cc(OCc3cccc(Cl)n3)ccc2OC[C@@H]1Cc1cccnc1 | 0.72 | 23400 | 1.27
7 | Cc1nc(COc2ccc3c(c2)[C@@H](O)[C@@H](Cc2cccnc2)CO3)ccc1Br | 3.55 | 1560 | 2.09
8 | c1ccc2ncccc2c1 [QUINOLINE] | 4.81 |  | 
